Experimental findings from patent US20220073536A1 (Rigel Pharmaceuticals, Inc., priority 2003, published 2022) are described below.

Counter-ions that a name gives are not always drawn. Like-named read-outs stand apart in the source and are kept apart here.

The experiment has as its system cultured human mast cells (CHMC). Put plainly: CHMC low cell density IgE activation: tryptase assay. The class given is cell-based. Particulars: low cell density CHMC, IgE activation, tryptase. The gist of the method: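 Anti-IgE-driven degranulation of cultured human mast cells at low density, 1000–1500 cells/well, was induced over 30 min at 37 °C. It was scored by supernatant tryptase activity on a fluorogenic substrate.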

Where [1] appears, read: Homo sapiens, Mast cell, 3 pt, read-out: LD Tryptase, CHMC, IgE, 3 pt.
The mark [2] stands for this setting: Homo sapiens, Mast cell, 8 pt, read-out: LD Tryptase, CHMC, IgE, 8 pt.
Where [3] appears, read: 3 pt, read-out: LD Tryptase, CHMC, IgE, 3 pt.
Where [4] appears, read: 8 pt, read-out: LD Tryptase, CHMC, IgE, 8 pt.

Turning to `CCN1CCN(c2ccc(Nc3ncc(F)c(NC4CCCC4)n3)cn2)CC1` [Compound 1231], the IC50 under setting [1] is below 10 µM.
For the compound `CCN1CCN(c2ccc(Nc3ncc(F)c(NC4CCCCC4)n3)cn2)CC1` [Compound 1232], the IC50 under setting [1] was below 10 µM.
Same read-out and setting: then `CN1CCN(c2ccc(Nc3ncc(F)c(NC(C)(C)C)n3)cc2C(F)(F)F)CC1` [Compound 1233], with below 10 µM.
Same read-out and setting: then `CCN1CCN(c2ccc(Nc3ncc(F)c(NC(C)C)n3)cn2)CC1` [Compound 1234], with below 10 µM.
As to `CN1CCN(c2ccc(Nc3ncc(F)c(NC4CCC4)n3)cc2CO)CC1` [Compound 1235], the IC50 under setting [2] is above 10 µM.
Consider `CCN1CCN(c2ccc(Nc3ncc(F)c(NC(C)(C)C)n3)cn2)CC1` [Compound 1236], for which, under setting [1], the IC50 was above 10 µM.
On the same count and under the same terms, the same measure for `CCN1CCN(c2ccc(Nc3ncc(F)c(NC4CC(C)(C)N(C)C(C)(C)C4)n3)cn2)CC1` [Compound 1237]: above 10 µM.
The same measure, in the same setting: then `CCOC(=O)N1CCC(Nc2nc(Nc3ccc(N4CCN(CC)CC4)nc3)ncc2F)CC1` [Compound 1238], with above 10 µM.
In the case of `Cc1cc(Nc2ncc(F)c(NC3CCC3)n2)cnc1N1CCN(C)CC1` [Compound 1239], under setting [1], the IC50 was above 10 µM.
Same read-out and setting: then `Cc1cc(Nc2ncc(F)c(NC3CCCC3)n2)cnc1N1CCN(C)CC1` [Compound 1240, N4-Cyclopentyl-5-fluoro-N2-[2-(4-methylpiperazino)-3-methylpyrid-5-yl]-2,4-pyrimidinediamine], with below 10 µM.
Same read-out and setting: the same measure for `Cc1cc(Nc2ncc(F)c(NC3CCCCC3)n2)cnc1N1CCN(C)CC1` [Compound 1241]: below 10 µM; for `Cc1cc(Nc2ncc(F)c(NC(C)C)n2)cnc1N1CCN(C)CC1` [Compound 1242]: below 10 µM.
For `CN1CCN(c2ccc(Nc3ncc(F)c(NC4CCC4)n3)cc2CO)CC1` [Compound 1243, N4-Cyclobutyl-5-fluoro-N2-[3-hydroxymethyl-4-(4-methylpiperazino)phenyl]-2,4-pyrimidinediamine Bishydrogen chloride salt], the IC50 under setting [3] was below 10 µM.
For the compound `Cc1cc(Nc2ncc(F)c(NC3CC(C)(C)N(C)C(C)(C)C3)n2)cnc1N1CCN(C)CC1` [Compound 1244], the IC50 under setting [1] is above 10 µM.
In the case of `Cc1cc(N2CCN(C)CC2)ncc1Nc1ncc(F)c(NC2CCC2)n1` [Compound 1245], the IC50 under setting [1] was above 10 µM.
Still for that read-out and setting: the same measure for `Cc1cc(N2CCN(C)CC2)ncc1Nc1ncc(F)c(NC2CCCC2)n1` [Compound 1246]: above 10 µM; for `Cc1cc(N2CCN(C)CC2)ncc1Nc1ncc(F)c(NC2CCCCC2)n1` [Compound 1247]: below 10 µM.
Still for that read-out and setting: then `Cc1cc(N2CCN(C)CC2)ncc1Nc1ncc(F)c(NC(C)C)n1` [Compound 1248], with above 10 µM; and `Cc1cc(N2CCN(C)CC2)ncc1Nc1ncc(F)c(NC2CC(C)(C)N(C)C(C)(C)C2)n1` [Compound 1249], with above 10 µM; and `Cc1cc(Nc2ncc(F)c(NC3(CO)CCCC3)n2)ccc1N1CCN(C)CC1` [Compound 1250], with below 10 µM.
Regarding `Cc1cc(C)cc(Nc2ncc(F)c(Nc3nc(N)n[nH]3)n2)c1` [Compound 1252], the IC50 under setting [2] is above 10 µM.
As to `COc1ccc(Nc2ncc(F)c(Nc3n[nH]c(N)n3)n2)cc1Cl` [Compound 1253], the IC50 under setting [2] was above 10 µM.
Same read-out and setting: the same measure for `Nc1nc(Nc2nc(Nc3ccc(Cl)c(Cl)c3)ncc2F)n[nH]1` [Compound 1254]: above 10 µM.
As to `Cc1cc(C)cc(Nc2ncc(F)c(NCC3COc4ccccc4O3)n2)c1` (centres unmarked) [Compound 1256, N4-[ (2,3-Dihydro-1,4-benzodioxan-2-yl)methyl]-N2-(3,5-dimethylphenyl)-5-fluoro-2,4-pyrimidinediamine], the IC50 under setting [3] is below 10 µM.
Consider `CNC(=O)COc1cccc(Nc2ncc(F)c(NCC3COc4ccccc4O3)n2)c1` (centres unmarked) [Compound 1257, N4-[ (2,3-Dihydro-1,4-benzodioxan-2-yl)methyl]-5-fluoro-N2-[3-(N-methylamino)carbonylmethyleneoxyphenyl]-2,4-pyrimidinediamine], for which the IC50 under setting [4] was below 10 µM.
Take `COc1cc(Nc2ncc(F)c(NCC3COc4ccccc4O3)n2)cc(OC)c1` (centres unmarked) [Compound 1258, N4-[ (2,3-Dihydro-1,4-benzodioxan-2-yl)methyl]-N2-(3,5-dimethoxyphenyl)-5-fluoro-2,4-pyrimidinediamine]: under setting [3], the IC50 was below 10 µM.
For the compound `COc1ccc(Nc2ncc(F)c(NCC3COc4ccccc4O3)n2)cc1Cl` (centres unmarked) [Compound 1259, N2-(3-Chloro-4-methoxyphenyl)-N4-[ (2,3-dihydro-1,4-benzodioxan-2-yl)methyl]-5-fluoro-2,4-pyrimidinediamine], the IC50 under setting [3] was below 10 µM.
As to `Fc1cnc(Nc2ccc3cn[nH]c3c2)nc1NCC1COc2ccccc2O1` (centres unmarked) [Compound 1260, N4-[ (2,3-Dihydro-1,4-benzodioxan-2-yl)methyl]-5-fluoro-N2-(indazol-6-yl)-2,4-pyrimidinediamine], the IC50 under setting [4] is below 10 µM.
Take `COC(=O)c1ccc(Nc2ncc(F)c(Nc3ccc(Cl)c(Cl)c3)n2)cc1` [Compound 1261]: under setting [1], the IC50 is above 10 µM.
Turning to `COC(=O)c1ccc(Nc2ncc(F)c(Nc3ccc4c(c3)NC(=O)[C@H](C)O4)n2)cc1` [Compound 1263], the IC50 under setting [2] was below 10 µM.
On the same count and under the same terms, the same measure for `C[C@H]1Oc2ccc(Nc3nc(Nc4ccc(C(N)=O)cc4)ncc3F)cc2NC1=O` [Compound 1265]: below 10 µM.
The same measure, in the same setting: the same measure for `COC(=O)c1ccc(Nc2ncc(F)c(Nc3ccc4c(c3)NC(=O)[C@@H](C)O4)n2)cc1` [Compound 1266]: below 10 µM.
In the case of `C[C@H]1Oc2ccc(Nc3nc(Nc4cccc(CN)c4)ncc3F)cc2NC1=O` [Compound 1280], the IC50 is, setting by setting: under setting [3], below 10 µM; under setting [4], below 10 µM.
Take `COC(=O)CCNC(=O)c1ccc(Nc2ncc(F)c(Nc3ccc4c(n3)NC(=O)C(C)(C)O4)n2)cc1` [Compound 1312, N4-(2,2-Dimethyl-3-oxo-4H-5-pyrid[1,4]oxazin-6-yl)-5-fluoro-N2-[4-[N-(2-methoxycarbonylethyl)aminocarbonyl]phenyl]-2,4-pyrimidinediamine]: the IC50 under setting [1] was below 10 µM.
`COC(=O)c1ccc(Nc2ncc(F)c(Nc3ccc(OC)c(Cl)c3)n2)cc1` [Compound 1322]: the IC50 under setting [2] is below 10 µM.
Regarding `CNC(=O)CNC(=O)c1ccc(Nc2ncc(F)c(Nc3ccc(OC)c(Cl)c3)n2)cc1` [Compound 1325], the IC50 under setting [4] was below 10 µM.
Take `NC(=O)c1ccc(Nc2nc(Cl)ncc2F)cc1` [Compound 1327]: under setting [2], the IC50 is above 10 µM.
On to `NC(=O)c1ccc(Nc2nc(Nc3cccc(O)c3)ncc2F)cc1` [Compound 1334], for which the IC50 by setting is: under setting [1], below 10 µM; under setting [2], below 10 µM.
Take `NC(=O)c1ccc(Nc2nc(Nc3cc(Cl)c(O)c(Cl)c3)ncc2F)cc1` [Compound 1335]: the IC50 under setting [1] was below 10 µM and the IC50 under setting [2] is below 10 µM.
Regarding `COc1ccc(Nc2ncc(F)c(Nc3ccc(C(N)=O)cc3)n2)cc1Cl` [Compound 1336], the IC50 was below 10 µM under setting [1] and below 10 µM under setting [2].
Turning to `NC(=O)c1ccc(Nc2ncc(F)c(Nc3ccc(C(N)=O)cc3)n2)cc1` [Compound 1339], the IC50 under setting [1] is above 10 µM and the IC50 under setting [2] was above 10 µM.
As to `COC(=O)CNC(=O)c1ccc(Nc2ncc(F)c(Nc3ccc(OCc4nc(C)no4)cc3)n2)cc1` [Compound 1342, 5-Fluoro-N2-(4-[N-[methoxycarbonylmethylene]aminocarbonyl]phenyl)-N4-(4-[3-methyl-1,2,4-oxadiazol-5-yl]methyleneoxyphenyl)-2,4-pyrimidinediamine], the IC50 is, setting by setting: under setting [3], below 10 µM; under setting [4], below 10 µM.
Consider `CN(c1ccc(Cl)c(Cl)c1)c1nc(Nc2ccc(C(N)=O)cc2)ncc1F` [Compound 1346], for which the IC50 under setting [1] was below 10 µM.
Consider `CCN(CC)CCNC(=O)c1ccc(Nc2ncc(F)c(N(C)c3ccc(Cl)c(Cl)c3)n2)cc1` [Compound 1347, N2-(4-[2-[N,N-Diethylamino]ethyleneaminocarbonyl]phenyl)-N4-(3,4-dichlorophenyl)-5-fluoro-N4-methyl-2,4-pyrimidinediamine], for which the IC50 under setting [3] is below 10 µM.
Regarding `NC(=O)c1ccc(Nc2ncc(F)c(NC3CCCC3)n2)cc1` [Compound 1349], the IC50 under setting [1] is above 10 µM.
Take `CCN(CC)CCNC(=O)c1ccc(Nc2ncc(F)c(NC3CCCC3)n2)cc1` [Compound 1350, N4-(Cyclopentyl)-N2-(4-[2-(N,N-diethylamino]ethyleneaminocarbonyl)phenyl)-5-fluoro-2,4-pyrimidinediamine]: the IC50 is, setting by setting: under setting [3], above 10 µM; under setting [4], below 10 µM.
As to `COc1cc(Nc2nc(Nc3ccc(C(N)=O)cc3)ncc2F)ccc1Cl` [Compound 1352], the IC50 under setting [1] is below 10 µM.
With `COc1ccc(Nc2nc(Nc3ccc(C(N)=O)c(Cl)c3)ncc2F)cc1Cl` [Compound 1353], the IC50 is, setting by setting: under setting [1], below 10 µM; under setting [2], below 10 µM.
For `COc1cc(Nc2nc(Nc3ccc(C(N)=O)c(Cl)c3)ncc2F)ccc1Cl` [Compound 1354], the IC50 is below 10 µM under setting [1] and below 10 µM under setting [2].
As for `CCN(CC)CCNC(=O)c1ccc(Nc2ncc(F)c(Nc3ccc(Cl)c(OC)c3)n2)cc1` [Compound 1355, N4-(4-Chloro-3-methoxyphenyl)-N2-(4-[2-[N,N-diethylamino]ethyleneaminocarbonyl]phenyl)-5-fluoro-2,4-pyrimidinediamine], the IC50 was below 10 µM under setting [3] and below 10 µM under setting [4].
Turning to `NC(=O)c1ccc(Nc2ncc(F)c(Nc3ccccc3)n2)cc1` [Compound 1357, N2-(4-Aminocarbonylphenyl)-5-fluoro-N4-phenyl-2,4-pyrimidinediamine], the IC50 was below 10 µM under setting [1] and below 10 µM under setting [2].
